Source: US10743540B2, “3-amino-1,2,4-triazine derivatives and their use for controlling undesired plant growth” (BAYER CROPSCIENCE AKTIENGESELLSCHAFT, priority 2016, dated 2020)

Columns and labels:
Type in all cases: in vivo
[1] = system: VERPE: Veronica persica; assay: Post-emergence herbicidal effect; details: application rate 320 g/ha, treated at one-leaf stage, assessed visually after about 3 weeks, 100% = plants have died
How it was run: (§1)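 Greenhouse foliar spray, one-leaf stage; WP/EC formulation in water at 600 to 800 L/ha + 0.2% wetting agent. Visual % rating ~3 wk post-treatment vs untreated (100% = plants dead, 0% = as control).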

[2] = system: STEME: Stellaria media; assay: Post-emergence herbicidal effect; details: application rate 320 g/ha, treated at one-leaf stage, assessed visually after about 3 weeks, 100% = plants have died
How it was run: as §1

[3] = system: VIOTR: Viola tricolor; assay: Post-emergence herbicidal effect; details: application rate 320 g/ha, treated at one-leaf stage, assessed visually after about 3 weeks, 100% = plants have died
How it was run: as §1

[4] = system: ECHCG: Echinochloa crus-galli; assay: Post-emergence herbicidal effect; details: application rate 320 g/ha, treated at one-leaf stage, assessed visually after about 3 weeks, 100% = plants have died
How it was run: as §1

[5] = system: AMARE: Amaranthus retroflexus; assay: Post-emergence herbicidal effect; details: application rate 320 g/ha, treated at one-leaf stage, assessed visually after about 3 weeks, 100% = plants have died
How it was run: as §1

[6] = system: ALOMY: Alopecurus myosuroides; assay: Post-emergence herbicidal effect; details: application rate 320 g/ha, treated at one-leaf stage, assessed visually after about 3 weeks, 100% = plants have died
How it was run: as §1

[7] = system: VERPE: Veronica persica; assay: Pre-emergence herbicidal effect; details: application rate 320 g/ha, scored visually after 3 weeks, 100% = plants have died, 0% = like control plants
How it was run: (§2)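 Soil-applied pre-emergence test: formulated compound in water (600 to 800 L/ha, 0.2% wetting agent) sprayed over covered seeds in sandy loam pots. Greenhouse, 3 weeks. Damage rated visually on a 0–100% scale (100% = dead).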

[8] = system: STEME: Stellaria media; assay: Pre-emergence herbicidal effect; details: application rate 320 g/ha, scored visually after 3 weeks, 100% = plants have died, 0% = like control plants
How it was run: as §2

[9] = system: SETVI: Setaria viridis; assay: Pre-emergence herbicidal effect; details: application rate 320 g/ha, scored visually after 3 weeks, 100% = plants have died, 0% = like control plants
How it was run: as §2

[10] = system: LOLMU: Lolium multiflorum; assay: Pre-emergence herbicidal effect; details: application rate 320 g/ha, scored visually after 3 weeks, 100% = plants have died, 0% = like control plants
How it was run: as §2

[11] = system: ECHCG: Echinochloa crus-galli; assay: Pre-emergence herbicidal effect; details: application rate 320 g/ha, scored visually after 3 weeks, 100% = plants have died, 0% = like control plants
How it was run: as §2

[12] = system: POLCO: Polygonum convolvulus; assay: Pre-emergence herbicidal effect; details: application rate 320 g/ha, scored visually after 3 weeks, 100% = plants have died, 0% = like control plants
How it was run: as §2

[13] = system: ALOMY: Alopecurus myosuroides; assay: Pre-emergence herbicidal effect; details: application rate 320 g/ha, scored visually after 3 weeks, 100% = plants have died, 0% = like control plants
How it was run: as §2

[14] = system: MATIN: Matricaria inodora; assay: Pre-emergence herbicidal effect; details: application rate 320 g/ha, scored visually after 3 weeks, 100% = plants have died, 0% = like control plants
How it was run: as §2

[15] = system: ABUTH: Abutilon theophrasti; assay: Pre-emergence herbicidal effect; details: application rate 320 g/ha, scored visually after 3 weeks, 100% = plants have died, 0% = like control plants
How it was run: as §2

Row | SMILES | Herbicidal activity with respect to [%] VERPE [1] [%] | Herbicidal activity with respect to [%] STEME [2] [%] | Herbicidal activity with respect to [%] VIOTR [3] [%] | Herbicidal activity with respect to [%] ECHCG [4] [%] | Herbicidal activity with respect to [%] AMARE [5] [%] | Herbicidal activity with respect to [%] ALOMY [6] [%] | Herbicidal activity with respect to [%] VERPE [7] [%] | Herbicidal activity with respect to [%] STEME [8] [%] | Herbicidal activity with respect to [%] SETVI [9] [%] | Herbicidal activity with respect to [%] LOLMU [10] [%] | Herbicidal activity with respect to [%] ECHCG [11] [%] | Herbicidal activity with respect to [%] POLCO [12] [%] | Herbicidal activity with respect to [%] ALOMY [13] [%] | Herbicidal activity with respect to [%] MATIN [14] [%] | Herbicidal activity with respect to [%] ABUTH [15] [%]
1 | Cc1ccc2c(c1)[C@H](Nc1nnc(Cl)c(N)n1)[C@@H](C)C2 [Example 1.3, 6-Chloro-N^3-[(1R,2S)-2,6-dimethyl-2,3-dihydro-1H-inden-1-yl]-1,2,4-triazine-3,5-diamine] | 100 | 100 | 100 | 80 | 100 | 90 | 100 | 100 | 100 | 100 | 100 | 100 | 100 | 100 | 100
2 | Nc1nc(N[C@@H]2CCCc3ccccc32)nnc1C(F)(F)F [Example 1.22] | 100 | 100 | 100 | 100 | 100 | 100 | 100 | 100 | 100 | – | 100 | 100 | 100 | 100 | 90
3 | Cc1ccc2c(c1)[C@H](Nc1nnc(C(F)(F)F)c(N)n1)[C@@H](C)C2 [Example 1.23] | 90 | 100 | 100 | 100 | 100 | 100 | 100 | 100 | 100 | 90 | 100 | 100 | 100 | 100 | 100
4 | Nc1nc(N[C@@H]2CCc3ccccc32)nnc1C(F)(F)F [Example 1.24] | 100 | 100 | 100 | 100 | 90 | 100 | 100 | 100 | 100 | 100 | 100 | 100 | 100 | 100 | 80
5 | Cc1ccc2c(c1)[C@H](Nc1nnc(C#N)c(N)n1)[C@@H](C)C2 [Example 1.25] | 100 | 100 | 90 | 100 | 90 | 100 | 100 | 100 | 100 | 100 | 100 | 100 | 100 | 100 | 100
6 | Cc1ccc2c(c1)[C@H](Nc1nnc([S+](C)[O-])c(N)n1)[C@@H](C)C2 (stereo partly shown) [Example 1.44] | 100 | 90 | 90 | 90 | 100 | 100 | 100 | 100 | 100 | 100 | 100 | 100 | 100 | 100 | 100
7 | Cc1ccc2c(c1)[C@H](Nc1nnc(C(F)(F)F)c(N)n1)CCC2 [Example 1.52] | 90 | 100 | 90 | 100 | 100 | 100 | 100 | 100 | 100 | 100 | 100 | 100 | 100 | 100 | 100
8 | Cc1ccc2c(c1)[C@H](Nc1nnc(C(F)(F)F)c(N)n1)CC2 [Example 1.67] | 90 | 100 | 100 | 100 | 100 | 90 | 100 | 100 | 100 | 100 | 100 | 100 | 100 | 100 | 80
9 | Cc1ccc2c(c1)[C@H](Nc1nnc(S(C)(=O)=O)c(N)n1)CCC2 [Example 1.68] | 80 | 100 | 90 | 80 | – | 100 | 100 | 100 | 100 | 100 | 100 | 100 | 100 | 100 | 100
